Assay results taken from patent US10342233B2, “Control of aquatic weeds using combinations of 4-amino-3-chloro-6-(4-chloro-2-fluoro-3-methoxyphenyl)pyridine-2-carboxylic acids and other aquatic herbicides” (Dow AgroSciences LLC, priority 2015, dated 2019).
Read-outs that look alike come from different tables or passages of the source.

How the values were obtained:
Type in all cases: in vivo
[1] = system: Alternanthera philoxeroides (Mart.) Griseb. (alligatorweed); assay: Greenhouse in-water herbicidal activity, flooded pot system; details: ALRPH 5 node, 20 DAA
Protocol: (§1) Weed seeds, nutlets, or vegetative cuttings of the desired test plant species were planted in puddled soil (mud) prepared by mixing a shredded, non-sterilized mineral soil (50.5 percent silt, 25.5 percent clay, and 24 percent sand, with a pH of approximately 7.6 and an organic matter content of approximately 2.9 percent) and water at a 1:1 volumetric ratio. The prepared mud was dispensed in 365 milliliter (mL) aliquots into 480 mL non-perforated plastic pots with a surface area of 86.59 square centimeters (cm^2) leaving a headspace of 3 centimeters (cm) in each pot. Mud was allowed to dry overnight prior to planting or transplanting.
(§2) The aquatic environment was created by filling the 3 cm headspace of the pots with water. […] The plants were grown for 4-20 days in a greenhouse with an approximate 14 hour (h) photoperiod which was maintained at about 29° C. during the day and about 26° C. during the night. Nutrients were added as Osmocote® (19:6:12, N:P:K+minor nutrients) at 2 grams (g) per 480 mL pot. Water was added on a regular basis to maintain the paddy flood, and supplemental lighting was provided with overhead metal halide 1000-Watt lamps as necessary. The plants were employed for testing when they reached the second through fifth true leaf stage or 5th node stage.
(§3) Treatments consisted of the benzyl ester of 4-amino-3-chloro-5-fluoro-6-(4-chloro-2-fluoro-3-methoxy-phenyl)pyridine-2-carboxylic acid (Compound II) formulated as a suspension concentrate (SC) and various herbicidal components alone and in combination.
(§4) Measured amounts of formulated compounds were placed in individual glass vials and were dissolved in an aliquot of an aqueous mixture containing 1.25% volume per volume (v/v) Agri-Dex® crop oil concentrate. A stock solution was prepared for each treatment concentration. Applications were made by injecting an appropriate amount of the application solution into the aqueous layer of the flooded greenhouse pot. Control plants were treated in the same manner with the solvent blank.
(§5) The treated plants and control plants were placed in a greenhouse as described above and water was added as needed to maintain a flood in the pot. After approximately 20 days after application (DAA), the condition of the test plants, compared with that of the untreated plants, was determined visually and scored on a scale of 0 to 100 percent where 0 corresponds to no injury or growth reduction and 100 corresponds to complete kill.

[2] = system: Cyperus esculentus L. (yellow nutsedge); assay: as above; details: CYPES 4 lf (30% submerged), 20 DAA
Protocol: as §1, §2, §3, §4, §5

[3] = system: Echinochloa crus-galli (L.) P. Beauv. (barnyardgrass); details: ECHCG 2-5 lf (30% submerged), 20 DAA
Protocol: as §1, §2, §3, §4, §5

[4] = system: Ischaemum rugosum Salisb. (saramollagrass)
Protocol: as §1, §2, §3, §4, §5

[5] = system: Leptochloa chinensis (L.) Nees (Chinese sprangletop); details: LEFCH 5 lf (30% submerged), 20 DAA
Protocol: as §1, §2, §3, §4, §5

[6] = system: Echinochloa oryzoides (Ard.) Fritsch (early watergrass); assay: Greenhouse in-water herbicidal activity, flooded pot system; details: ECHOR 2-3 lf (20-30% submerged), 20 DAA
Protocol: as §1
The aquatic environment was created by filling the 3 cm headspace of the pots with water. When required to ensure good germination and healthy plants, a fungicide treatment and/or other chemical or physical treatment was applied. The plants were grown for 4-20 days in a greenhouse with an approximate 14 hour (h) photoperiod which was maintained at about 29° C. during the day and about 26° C. during the night. Nutrients were added as Osmocote® (19:6:12, N:P:K+minor nutrients) at 2 grams (g) per 480 mL pot. […]
Treatment requirements for each compound or herbicidal component were calculated based upon the rates being tested, the concentration of active ingredient or acid equivalent in the formulation, and a treatment application volume of 2 mL per compound per pot.
Measured amounts of formulated compounds were placed in individual glass vials and were dissolved in an aliquot of an aqueous mixture containing 1.25% volume per volume (v/v) Agri-Dex® crop oil concentrate. […]
as §5

[7] = 2100 ppb (elemental copper basis) in water
[8] = 4200 ppb (elemental copper basis) in water
[9] = 8300 ppb (elemental copper basis) in water

## COc1c(Cl)ccc(-c2nc(C(=O)OCc3ccccc3)c(Cl)c(N)c2F)c1F [Compound II, benzyl 4-amino-3-chloro-5-fluoro-6-(4-chloro-2-fluoro-3-methoxyphenyl)pyridine-2-carboxylate]
[1]; 33.25 ppb in water
  Compound II Mean % Weed Control: 55.0%
[1]; 33.3 ppb in water
  Compound II Mean % Weed Control: 55.0%
[1]; 66.6 ppb in water
  Compound II Mean % Weed Control: 68.0%
[2]; 33.25 ppb in water
  Compound II Mean % Weed Control: 18.0%
[2]; 33.3 ppb in water
  Compound II Mean % Weed Control: 18.0%
[2]; 66.6 ppb in water
  Compound II Mean % Weed Control: 68.0%
[3]; 33.25 ppb in water
  Compound II Mean % Weed Control: 65.0%
[4]; ISCRU 2-3 lf (30-50% submerged), 66.6 ppb in water, 20 DAA
  Compound II Mean % Weed Control: 75.0%
[4]; ISCRU 2-3 lf (30-50% submerged), 133.4 ppb in water, 20 DAA
  Compound II Mean % Weed Control: 85.0%
[5]; 66.6 ppb in water
  Compound II Mean % Weed Control: 20.0%
[6]; 33.3 ppb in water
  Compound II Mean % Weed Control: 25.0%
[6]; 133.4 ppb in water
  Compound II Mean % Weed Control: 78.0%

## c1cc[n+]2c(c1)-c1cccc[n+]1CC2 [Diquat Dibromide, 9,10-dihydro-8a,10a-diazoniaphenanthrene]
[4]; in vivo
  Diquat Dibromide Mean % Weed Control: 0.0%
[6]; 900 ppb in water
  Diquat Dibromide Mean % Weed Control: 0.0%

## O=C(O)C1C2CCC(O2)C1C(=O)O (centres unmarked) [Endothal, 7-oxabicyclo[2.2.1]heptane-2,3-dicarboxylic acid]
[1]; 1120 ppb in water
  Endothal Mean % Weed Control: 0.0%
[1]; 4480 ppb in water
  Endothal Mean % Weed Control: 0.0%
[1]; 8960 ppb in water
  Endothal Mean % Weed Control: 0.0%
[2]; 1120 ppb in water
  Endothal Mean % Weed Control: 0.0%
[2]; 4480 ppb in water
  Endothal Mean % Weed Control: 0.0%
[4]; ISCRU 2-3 lf (30-50% submerged), 1120 ppb in water, 20 DAA
  Endothal Mean % Weed Control: 0.0%
[4]; ISCRU 2-3 lf (30-50% submerged), 4480 ppb in water, 20 DAA
  Endothal Mean % Weed Control: 0.0%

## Cn1cc(-c2ccccc2)c(=O)c(-c2cccc(C(F)(F)F)c2)c1 [Fluridone, 1-methyl-3-phenyl-5-(α,α,α-trifluoro-m-tolyl)-4-pyridone]
[1]; 180 ppb in water
  Fluridone Mean % Weed Control: 65.0%
[2]; 10 ppb in water
  Fluridone Mean % Weed Control: 0.0%
[2]; 45 ppb in water
  Fluridone Mean % Weed Control: 0.0%
[2]; 90 ppb in water
  Fluridone Mean % Weed Control: 0.0%
[4]; ISCRU 2-3 lf (30-50% submerged), 10 ppb in water, 20 DAA
  Fluridone Mean % Weed Control: 10.0%
[4]; ISCRU 2-3 lf (30-50% submerged), 45 ppb in water, 20 DAA
  Fluridone Mean % Weed Control: 10.0%

## copper(II) sulfate [Copper Sulfate]
[1]; 300 ppb in water
  Copper Sulfate Mean % Weed Control: 0.0%
[1]; 600 ppb in water
  Copper Sulfate Mean % Weed Control: 0.0%
[1]; 900 ppb in water
  Copper Sulfate Mean % Weed Control: 0.0%
[2]; 300 ppb in water
  Copper Sulfate Mean % Weed Control: 0.0%
[2]; 600 ppb in water
  Copper Sulfate Mean % Weed Control: 0.0%

## mixed copper ethanolamine complex
[1]; [7]
  Mixed Copper Ethanolamine Complex Mean % Weed Control: 0.0%
[1]; [8]
  Mixed Copper Ethanolamine Complex Mean % Weed Control: 0.0%
[1]; [9]
  Mixed Copper Ethanolamine Complex Mean % Weed Control: 0.0%
[3]; [7]
  Mixed Copper Ethanolamine Complex Mean % Weed Control: 0.0%
[3]; [8]
  Mixed Copper Ethanolamine Complex Mean % Weed Control: 0.0%
[3]; [9]
  Mixed Copper Ethanolamine Complex Mean % Weed Control: 0.0%
[4]; ISCRU 2-3 lf (30-50% submerged), 8300 ppb (elemental copper basis) in water, 20 DAA
  Mixed Copper Ethanolamine Complex Mean % Weed Control: 0.0%
[5]; [8]
  Mixed Copper Ethanolamine Complex Mean % Weed Control: 0.0%
[5]; [9]
  Mixed Copper Ethanolamine Complex Mean % Weed Control: 0.0%
